Target: humaner Carboanhydrase II (Homo sapiens, UniProt P00918)
Assay: Carbonic anhydrase inhibition, photometric, nitrophenyl acetate conversion on microtitre plates
Format: biochemical
Details: humane Carboanhydrase II; read-out: CAII IC50
From the text: Photometrische Bestimmung der Hemmung von humaner Carboanhydrase I oder II durch Sulfonamide oder Sulfamate auf Mikrotiterplatten mit Hilfe der enzymatischen Umwandlung von Nitrophenylacetat mit einem Farbumschlag von farblos nach gelb. Tabelle 1: IC50 Hemmwerte humaner Carboanhydrase I und II

With `C[C@]12CC[C@@H]3c4ccc(OS(N)(=O)=O)cc4CC[C@H]3[C@@H]1CC[C@@H]2O` [Estradiol-3-sulfamat] the IC50 was 21.6 ± 1.5 nM.

— patent EP2039702A2, “Prodrugs erbeta-selective substances, method for their production and pharmaceutical compounds containing these compositions” (Bayer Schering Pharma Aktiengesellschaft, priority 2005, dated 2007)
